The text below walks through data of US9462808B2, “Pesticidal compositions” (Syngenta Participants AG, priority 2010, dated 2016).

Where two headings read alike, the source gives them in different places.

One may read the mortality as the percentage killed.

Common to all, as to format: in vivo
In series [1] the test system is Rhopalosiphum padi (cereal aphid). Put plainly: Activity against Rhopalosiphum padi (cereal aphid) on wheat, spray with safener cloquintocet, 6 days after application (Example B1). To be noted: 144 h, test compound 25 ppm, adjuvant Mero 0.1% v/v, 6 days after application, Abbott's formula, read-out: Efficacy (% mortality) against cereal aphids (Rhopalosiphum padi). The protocol: One replicate consisted of 4 wheat plants per pot. […] 9 days after seeding all wheat plants (10replicates) were sprayed with respective test solutions. […] 6 days after application aphid mortality and phytotoxicity were evaluated. […] Additionally the average plant height per replicate was measured.

Series [2] deals with Nilaparvata lugens (brown plant hopper, BPH). Nature of the series: Activity against Nilaparvata lugens (brown plant hopper, BPH) on rice, spray with safeners, 7 d after application (Example B2). Conditions: 168 h, read-out: % mortality, corr.; for mortality at 25 ppm: 25 ppm AI; for mortality at 50 ppm: 50 ppm AI; for mortality at 100 ppm: 100 ppm AI; for mortality at 200 ppm: 200 ppm AI. How it is done: Eight replicates (pots with rice plants) were sprayed with respective test solutions. Test solutions contained the formulated test compound and the safener cloquintocet and N-(2-methoxybenzoyl)-4-[(methylaminocarbonyl)amino]-benzenesulfonamide at different ratios. 4 pots were infested with plant hopper nymphs right after application. 7d after application BPH mortality and plant safety were evaluated. […] Assessment on plant safety was done by measuring the average plant height per replicate.

Series [3] relates to Rhopalosiphum padi (cereal aphid). Nature of the series: Activity against Rhopalosiphum padi (cereal aphid) on wheat, selected safeners at different mixture ratios, 7 DAA (Example B3). To be noted: AI rate 12.5 ppm. The protocol: One replicate consisted of 4 wheat plants per pot. […] Test solutions contained the formulated test compounds, the adjuvant Mero (0.1% v/v), and selected safeners at different mixture ratios. 7d after application aphid mortality and was evaluated.

For series [4], the system named is Wheat, Triticium durum (Poaceae) var. Arina. Put plainly: Reduction of phytotoxicity by safeners applied as seed treatment with compound of formula I on wheat (Example B4). The protocol:
Test compounds: compound P1.2 according to Table P1, as SC 050; Safener 1=cloquintocet-mexyl, as WP 25, Safener 2=mefenpyr-diethyl as WP 25, Safener 3═N-(2-methoxybenzoyl)-4-[(methylaminocarbonyl)amino]benzenesulfonamide, as SC 100. • Plants: Wheat, Triticium durum (Poaceae) var. Arina • Seed treatment: The seeds were treated by shaking the seeds with a slurry for 30 seconds in a glass flask. Treatments were 10% overdosed to compensate for substance adhering to the flask. In a first step, compound P1.2 was treated on the seeds. Afterwards the safeners were treated on the dried seeds. […] The loading rates of the safeners were 0.5, 0.1 and 0.025 mg a.i./seed. Soil: “Drench soil”, loamy sand, prefertilised with 1 g/I soil of Landor 13.1.3.21. • Procedures: 9-cm pots were filled with 330 ml of Drench soil loamy sand and the seeds were placed into the soil in about 5 mm beneath the soil surface. • Conditions: During the growth period the plants were kept in a randomised fashion in a greenhouse chamber at 25° C. during daytime, 23° C. during night, 50-60% rH, a 14-hour photoperiod and artificial lighting when natural light fell below 20 kLux. During the exposure the assay was kept at 22° C. • Assessments: 14 days after emergence, the phytotoxicity was recorded.

Turning to `CCOC(=O)OC1=C(c2c(C)cc(C)cc2C)C(=O)N(C)C12CCN(OC)CC2` [Compound P1.2, Carbonic acid ethyl ester 8-methoxy-1-methyl-2-oxo-3-(2,4,6-trimethyl-phenyl)-1,8-diaza-spiro[4.5]dec-3-en-4-yl ester], the mortality at 25 ppm amounted to 97.4% in series [1] (ratio AI:safener cell blank (no safener), wheat); 93.4% in series [1] (safener cloquintocet, ratio AI:safener 1:1, wheat); 94.4% in series [1] (safener cloquintocet, ratio AI:safener 1:2, wheat); 30% in series [2] (Cloquintocet, ratio AI:safener 1.9:1, 7 d after application); 3% in series [2] (Safener 2, ratio AI:safener 1.9:1, 7 d after application). Moreover, the mortality at 12.5 ppm in series [2] (12.5 ppm AI, Safener 2, ratio AI:safener 0.9:1, 7 d after application) was found to be 0%. Besides, the mortality at 50 ppm in series [2] (Cloquintocet, ratio AI:safener 1.25:1, 7 d after application) worked out at 57%; in series [2] (Safener 2, ratio AI:safener 1.25:1, 7 d after application), 42%. Moreover, the mortality at 100 ppm in series [2] (Cloquintocet, ratio AI:safener 7.5:1, 7 d after application) stood at 78%; in series [2] (Safener 2, ratio AI:safener 7.5:1, 7 d after application), 68%. In addition, the mortality at 200 ppm in series [2] (Cloquintocet, ratio AI:safener 15:1, 7 d after application) was found to be 93%; in series [2] (Safener 2, ratio AI:safener 15:1, 7 d after application) it was 85%. Further, the “Efficacy (% mortality) against cereal aphids (Rhopalosiphum padi) 7DAA” value in series [3] (+ Cloquintocet-mexyl, ratio AI:safener 1:2) is 94%; in series [3] (+ Cloquintocet-mexyl, ratio AI:safener 1:4), 91%; in series [3] (+ Cloquintocet-mexyl, ratio AI:safener 1:8), 91%; in series [3] (+ Mefenpyr-diethyl, ratio AI:safener 1:2), 97%; in series [3] (+ Mefenpyr-diethyl, ratio AI:safener 1:4), 92%; in series [3] (+ Mefenpyr-diethyl, ratio AI:safener 1:8), 92%. Also, the “Efficacy (% mortality) against cereal aphids (Rhopalosiphum padi) 7DAA” value is recorded as 97% in series [3] (+ Safener 2 (N-(2-methoxybenzoyl)-4-[(methylaminocarbonyl)amino]benzenesulfonamide), ratio AI:safener 1:2); 95% in series [3] (+ Safener 2 (N-(2-methoxybenzoyl)-4-[(methylaminocarbonyl)amino]benzenesulfonamide), ratio AI:safener 1:4); 97% in series [3] (+ Safener 2 (N-(2-methoxybenzoyl)-4-[(methylaminocarbonyl)amino]benzenesulfonamide), ratio AI:safener 1:8); 98% in series [3] (no safener, spray on wheat, Abbott's formula). Further, the “Phytotoxicity after seed treatment” value in series [4] (P1.2 0.1 mg a.i./seed with safeners (cloquintocet-mexyl, mefenpyr-diethyl, N-(2-methoxybenzoyl)-4-[(methylaminocarbonyl)amino]benzenesulfonamide), wheat, 14 days after emergence) was “safeners protect the plants from the adverse effects”. Moreover, the “Phytotoxicity (%) of compound P1.2 on wheat, control without safener” value in series [4] (seed treatment, 1 mg compound P1.2, without safener) was “Control: application of 1 mg compound P1.2. without safener results in 64.3% phyotoxicity”.
